Several values for one entry are separate records, joined by “and”; a condition that tells them apart may be missing. Equal entries are not always repeated. Entries after “also recorded” stand apart in the source; their conditions may differ. Where two headings read alike, the source gives them in different places.
Tests used:
[1] = test system: CBD1, C13K, CBD1/A and C10M peptides and the CBD1-KLH Construct; details: guinea pig, in vivo
[2] = target: CBD1, C13K, CBD1/A and C10M peptides and the CBD1-KLH Construct (Human immunodeficiency virus type 1 group M subtype B, UniProt P04578, E630Q/H625N/T626M); details: guinea pig, in vivo
[3] = target: CBD1, C13K, CBD1/A and C10M peptides and the CBD1-KLH Construct (Human immunodeficiency virus type 1 group M subtype B, UniProt P04578); details: guinea pig, in vivo
[4] = test system: CBD1 peptide and CBD1- and CBM-based peptides; set-up: species or system BALB/c mice; details: mouse, in vivo
[5] = test system: CBD1 (C18K) and the Tet peptide; set-up: species or system cynomolgus macaques (Macaca fascicularis); details: cynomolgus monkey, in vivo
CBD1 peptide = CBD1 peptide (Human immunodeficiency virus type 1 group M subtype B, UniProt P04578, E630Q/H625N/T626M); details: rabbits, 150 μg/injection, CFA, ten days after 5th immunization; against CBD1; reciprocal dilution giving OD450 = 0.1
HIV-1 BZ 167 [6] = assay type: cell-based
[7] = test system: IgG antibodies in human HIV-1 positive sera; assay type: binding
[8] = test system: CBD1 peptide specific IFN-γ spot forming cells; set-up: species or system cynomolgus macaques (Macaca fascicularis); details: cynomolgus monkey, in vivo
[9] = test system: primary HIV-1 BZ 167 isolate; assay type: cell-based; details: rabbit immune serum; dilution resulting 50% inhibition of HIV-1 infection; listed as CBD1
HIV-1 BZ 167 [10] = assay type: cell-based; details: listed as CBD1

Substance: C-S-L-E-Q-I-W-N-N-M-T-W-M-Q-W-D-K [C17K]
- ELISA C13K (titer) [1]: 128,000
- ELISA CBD1/A (titer) [1]: 12,000 and 16,000
- ELISA KLH (titer against the CBD1-KLH construct) [1]: <200
- IgG2/1gG1 ratio [1]: 4.10 and 3.75
- ELISA CBD1 (titer) [2]: 128,000
- Titer (ELISA) [2]: 128,000 and 96,000
- ELISA C10M (titer) [3]: 12,000
- IgG2/1gG1 ratio [4]: 0.96 and 1.15
- Titer (ELISA) [4]: 256,000 and 384,000
- ELISA C17K ([4]; sc): 1.94 ± 0.28
- ELISA K23M ([4]; sc): <0.20
- ELISA K24W ([4]; sc): <0.20
- ELISA K27M ([4]; sc): 2.91 ± 0.26
- ELISA K27W ([4]; sc): <0.20
- ELISA K27W(G) ([4]; sc): <0.20
- ELISA K30W(G) ([4]; sc): <0.20
- ELISA against the Immunogen (OD) ([4]; sc): 1.22 OD
- ELISA p6362 ([4]; sc): 1.78 ± 0.22
- ELISA titer against C17K ([4]; sc): 1.94 ± 0.45
- IgG2/IgG1 ratio ([4]; sc): 1.08
- macaques that developed high antibody titers [5]: two out of the three; also recorded: one out of the three
- Titer (ELISA) (CBD1 peptide): 768,000 and 640,000
- % Inhibition of HIV-1 infection at 200-fold dilution (HIV-1 BZ 167 [6]): 59%
- % inhibition of HIV-1 at 200-fold dilution (HIV-1 BZ 167 [6]): 75%
- HIV Inhibition (ID50) (HIV-1 BZ 167 [6]): 250 and 300
- Neutralizing activity ID50 (HIV-1 BZ 167 [6]): 250-fold
- Neutralizing activity ID50 Fold-Dilution (HIV-1 BZ 167 [6]): 300-fold
- sera found to be positive in ELISA ([7]; another cohort of 75 HIV-1-positive individuals): two
- titer of anti-CBD1 peptide antibodies ([7]; listed as CBD1): 6,400 and 12,800
- immunized animals in each group that developed a significant level of T-cell response against the CBD1 epitope [8]: one out of the three
- HIV Inhibition (ID50) [9]: 250 and 200
- Inhibition of HIV-infection (HIV-1 BZ 167 [10]; 50-fold dilution of guinea pig immune sera (bleeds S5), HIV-1 BZ 167, p24 at 5 days post infection): 66% and 57%
- Inhibition of HIV infection (HIV-1 BZ 167 [10]; 100 fold dilution of guinea pig immune serum (bleeds S5), HIV-1 BZ 162, human CD4+ T lymphocytes): 66% and 57%
- HIV Inhibition (ID50) (HIV-1 BZ 167 [10]; guinea pig immune serum, dilution resulting 50% inhibition of HIV-1 infection): 50 and <50
